Values joined by “and” are separate entries in the source; they are usually repeats but may differ in a detail not shown here. Equal values may be shown once.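 The compound was tested at five concentrations on cells cultured in 96-well plates, with a 48-hour exposure period. GI50 is the concentration that inhibits growth by half. TGI marks complete inhibition of growth.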
Assays:
Experiment in all cases: NCI anticancer screen, dose series, 48 h
[1] = test system: ACHN renal
[2] = test system: T-47D breast
[3] = test system: SNB-19 CNS
[4] = test system: A549 NSCLC
[5] = test system: SNB-75 CNS
[6] = test system: SF-295 CNS
[7] = test system: MDA-MB-231 breast
[8] = test system: OVCAR-4 ovarian
[9] = test system: NCI-H23 lung
[10] = test system: BT-549 breast

O=C1c2cccnc2-c2nc(/C=C/c3ccccc3)cc3c2c1nc1ccccc13
GI50 [1]: 1.94 µM | TGI [1]: 5.54 µM | GI50 [2]: 6.16 µM | TGI [2]: > 78.7 µM | GI50 [3]: 2.51 µM | TGI [3]: 6.13 µM | GI50 [4]: 2.2 µM | TGI [4]: 4.34 µM | GI50 [5]: 2 µM | TGI [5]: 8.06 µM | GI50 [6]: 2.31 µM | TGI [6]: 5.27 µM | GI50 [7]: 6.95 µM | TGI [7]: > 80.8 µM | GI50 [8]: 3.77 µM | TGI [8]: 10.5 µM | GI50 [9]: 1.6 µM | TGI [9]: 3.58 µM | GI50 [10]: 6.38 µM | TGI [10]: 17.3 µM

COc1c2ccccc2c(O)c2c(=O)c(C(=O)O)cn(C)c12
GI50 [1]: > 100 µM | TGI [1]: > 100 µM | GI50 [2]: > 100 µM | TGI [2]: > 100 µM | GI50 [3]: > 100 µM | TGI [3]: > 100 µM | GI50 [4]: > 100 µM | TGI [4]: > 100 µM | GI50 [5]: > 100 µM | TGI [5]: > 100 µM | GI50 [6]: 28.8 µM | TGI [6]: > 100 µM | GI50 [7]: > 100 µM | TGI [7]: > 100 µM | GI50 [8]: > 100 µM | TGI [8]: > 100 µM | GI50 [9]: > 100 µM | TGI [9]: > 100 µM | GI50 [10]: > 100 µM | TGI [10]: > 100 µM

COc1ccc2nc(NCCCNCCO)c3sc4ccc(F)cc4c(=O)c3c2c1
GI50 [1]: 1.63 µM | TGI [1]: 2.99 µM | GI50 [2]: 1.68 µM | TGI [2]: 3.93 µM | GI50 [3]: 1.7 µM | TGI [3]: 3.2 µM | GI50 [4]: 1.6 µM | TGI [4]: 3.64 µM | GI50 [5]: 1.55 µM | TGI [5]: 3.05 µM | GI50 [6]: 1.73 µM | TGI [6]: 3.22 µM | GI50 [7]: 1.43 µM | TGI [7]: 2.84 µM | GI50 [8]: 1.76 µM | TGI [8]: 3.43 µM | GI50 [9]: 1.73 µM | TGI [9]: 3.27 µM | GI50 [10]: 12.8 µM | TGI [10]: 31.7 µM

CC(CN)[C@@H]1CC[C@]2(CO)CC[C@]3(C)[C@H](CC[C@@H]4[C@@]5(C)CCC(NCCO)C(C)(C)[C@@H]5CC[C@]43C)[C@@H]12 (some centres undefined)
GI50 [1]: 5.2 µM | TGI [1]: 17.6 µM | GI50 [2]: 2.01 µM | TGI [2]: 4.58 µM | GI50 [3]: 1.8 µM | TGI [3]: 3.54 µM | GI50 [4]: 1.68 µM | TGI [4]: 3.08 µM | GI50 [5]: 1.3 µM | TGI [5]: 3.12 µM | GI50 [6]: 1.74 µM | TGI [6]: 3.4 µM | GI50 [7]: 1.38 µM | TGI [7]: 2.86 µM | GI50 [8]: 2.7 µM | TGI [8]: 9.09 µM | GI50 [9]: 2.29 µM | TGI [9]: 5.47 µM | GI50 [10]: 3.77 µM | TGI [10]: 16.3 µM

Nc1nc2ccc([C@@H]3Nc4ccc5[nH]ncc5c4[C@H]4[C@H]5CCC(C5)[C@H]43)cc2s1
GI50 [1]: 1.37 µM | TGI [1]: 9.57 µM | GI50 [2]: 0.79 µM | TGI [2]: 6.16 µM | GI50 [3]: 1.3 µM | TGI [3]: 11 µM | GI50 [4]: 0.994 µM | TGI [4]: 3.98 µM | GI50 [5]: 0.319 µM | TGI [5]: 2.47 µM | GI50 [6]: 0.648 µM | TGI [6]: 5.95 µM | GI50 [7]: 1.29 µM | TGI [7]: 11.6 µM | GI50 [8]: 2.2 µM | TGI [8]: 6.05 µM | GI50 [9]: 1.58 µM | TGI [9]: 3.72 µM | GI50 [10]: 1.25 µM | TGI [10]: 5.25 µM

COC(=O)c1ccc(=O)c2nc3/c(=C/O)c(O)cc(=O)c3[nH]c12
GI50 [1]: 0.478 µM | TGI [1]: 16.6 µM and 14.5 µM | GI50 [2]: 1.29 µM | TGI [2]: 8.65 µM and 48.2 µM | GI50 [3]: 1.28 µM | TGI [3]: 32.2 µM and 20.4 µM | GI50 [4]: 0.514 µM | TGI [4]: 14.3 µM and 45 µM | GI50 [5]: 0.482 µM | TGI [5]: 16.4 µM and 13.6 µM | GI50 [6]: 0.153 µM | TGI [6]: 14.3 µM and 8.64 µM | GI50 [7]: 3.57 µM | TGI [7]: 19.3 µM and 19.2 µM | GI50 [8]: 3.58 µM | TGI [8]: 31.4 µM and 29.8 µM | GI50 [9]: 0.514 µM | TGI [9]: 9.33 µM and 16.7 µM | GI50 [10]: 0.347 µM | TGI [10]: 6.14 µM and 12.1 µM

O=c1cccc(C#Cc2ccccc2)o1
GI50 [1]: 7.7 µM | TGI [1]: 21.5 µM | GI50 [2]: 8.67 µM | TGI [2]: 46 µM | GI50 [3]: 10.5 µM | TGI [3]: 37.6 µM | GI50 [4]: 11.1 µM | TGI [4]: > 90.9 µM | GI50 [5]: 42.3 µM | TGI [5]: > 100 µM | GI50 [6]: 5.03 µM | TGI [6]: 13.8 µM | GI50 [7]: 6.05 µM | TGI [7]: 25.8 µM | GI50 [8]: 18.4 µM | TGI [8]: 44.5 µM | GI50 [9]: 4.42 µM | TGI [9]: 12.2 µM | GI50 [10]: 2.57 µM | TGI [10]: 12.2 µM

COc1cccc(/C=C/C(=O)c2ccc(Cl)cc2Cl)c1OC
GI50 [1]: 14.3 µM | TGI [1]: 28 µM | GI50 [2]: 8.59 µM | TGI [2]: 25.5 µM | GI50 [3]: 4.15 µM | TGI [3]: 14.9 µM | GI50 [4]: 10.4 µM | TGI [4]: 24.7 µM | GI50 [5]: 18 µM | TGI [5]: 33.8 µM | GI50 [6]: 15 µM | TGI [6]: 32.5 µM | GI50 [7]: 12.3 µM | TGI [7]: 27.8 µM | GI50 [8]: 11.3 µM | TGI [8]: 34 µM | GI50 [9]: 13.7 µM | TGI [9]: 26.6 µM | GI50 [10]: 5.93 µM | TGI [10]: 20.2 µM

COc1ccc(-c2cnc(-c3ccc(F)cc3)[nH]2)cc1
GI50 [1]: 15.2 µM | TGI [1]: 30.5 µM | GI50 [2]: 8.39 µM | TGI [2]: 36.4 µM | GI50 [3]: 10.8 µM | TGI [3]: 26.1 µM | GI50 [4]: 5.8 µM | TGI [4]: 16.1 µM | GI50 [5]: 4.26 µM | TGI [5]: 10.7 µM | GI50 [6]: 1.54 µM | TGI [6]: 3.43 µM | GI50 [7]: 24 µM | TGI [7]: > 77.7 µM | GI50 [8]: 10.1 µM | TGI [8]: > 35.3 µM | GI50 [9]: 10.6 µM | TGI [9]: 46.6 µM | GI50 [10]: 1.79 µM | TGI [10]: 4.12 µM

O=C(Oc1ccc([N+](=O)[O-])cc1)N1CCN(Cc2cccc(Oc3ccccc3)c2)CC1
GI50 [1]: > 100 µM | TGI [1]: > 100 µM | GI50 [2]: 17.7 µM | TGI [2]: > 100 µM | GI50 [3]: > 100 µM | TGI [3]: > 100 µM | GI50 [4]: > 73.6 µM | TGI [4]: > 100 µM | GI50 [5]: > 100 µM | TGI [5]: > 100 µM | GI50 [6]: 62.9 µM | TGI [6]: > 100 µM | GI50 [7]: > 100 µM | TGI [7]: > 100 µM | GI50 [8]: > 44.8 µM | TGI [8]: > 100 µM | GI50 [9]: > 71.9 µM | TGI [9]: > 100 µM | GI50 [10]: 52 µM | TGI [10]: > 100 µM

COc1cc(-c2oc3c(OC)c(OC)cc(O)c3c(=O)c2OC)ccc1O
GI50 [1]: 1.84 µM and 4.71 µM | TGI [2]: 34.4 µM | TGI [3]: > 100 µM | TGI [4]: > 50 µM | GI50 [5]: 1.7 µM and > 5 µM | TGI [5]: 8.54 µM and > 5 µM | GI50 [6]: 3.24 µM and 8.34 µM | TGI [6]: > 100 µM and 38.1 µM | TGI [7]: > 50 µM | GI50 [8]: > 100 µM and 11.4 µM | TGI [8]: > 100 µM | GI50 [9]: 7.38 µM and 35.1 µM | TGI [9]: > 100 µM | TGI [10]: 35.7 µM

COc1cc(NN=C(c2ccc(O)cc2)c2ccc(O)cc2)c([N+](=O)[O-])cc1[N+](=O)[O-]
GI50 [1]: 5.23 µM | TGI [1]: 20.3 µM | GI50 [2]: 1.62 µM | TGI [2]: 19.2 µM | GI50 [3]: 10.7 µM | TGI [3]: 23.3 µM | GI50 [4]: 7.59 µM | TGI [4]: 33.7 µM | GI50 [5]: 14.7 µM | TGI [5]: 29.6 µM | GI50 [6]: 1.73 µM | TGI [6]: 16.5 µM | GI50 [7]: 11.4 µM | TGI [7]: 25.5 µM | GI50 [8]: 12.2 µM | TGI [8]: 27 µM | GI50 [9]: 13.5 µM | TGI [9]: 34.5 µM | GI50 [10]: 14 µM | TGI [10]: 30.2 µM

COc1ccc2cc(C(=O)/C=C/c3cccc(Cl)c3Cl)ccc2c1
GI50 [1]: 3.76 µM | TGI [1]: 33 µM | GI50 [2]: > 59 µM | TGI [2]: > 100 µM | GI50 [3]: 26.2 µM | TGI [3]: > 83.3 µM | GI50 [4]: 10.9 µM | TGI [4]: > 100 µM | GI50 [5]: 28.4 µM | TGI [5]: > 90.8 µM | GI50 [6]: 5.94 µM | TGI [6]: > 100 µM | GI50 [7]: 12.2 µM | TGI [7]: 39.6 µM | GI50 [8]: 44.6 µM | TGI [8]: > 100 µM | GI50 [9]: 6.42 µM | TGI [9]: 29.4 µM | GI50 [10]: 12.5 µM | TGI [10]: 48.9 µM

CCOC(=O)/C=C1\SC(=Nc2ccc(C#N)cc2)N(CCN2C(=O)/C(=C/C(=O)OCC)SC2=Nc2ccc(C#N)cc2)C1=O
GI50 [1]: 4.62 µM | TGI [1]: 17.9 µM | GI50 [2]: 2.37 µM | TGI [2]: 41.2 µM | GI50 [3]: 2.12 µM | TGI [3]: 12.9 µM | GI50 [4]: 15.4 µM | TGI [4]: 51.2 µM | GI50 [5]: 5.02 µM | TGI [5]: 36.1 µM | GI50 [6]: 5.59 µM | TGI [6]: 25.6 µM | GI50 [7]: 2.09 µM | TGI [7]: 7.85 µM | GI50 [8]: 2.28 µM | TGI [8]: 29.9 µM | GI50 [9]: 3.52 µM | TGI [9]: 18.1 µM | GI50 [10]: 2.98 µM | TGI [10]: 16.4 µM

O=S(=O)(NC(=S)Nc1ccccc1)c1ccc(N2N=C3c4ccccc4CC3C2c2cccs2)cc1 (centres undefined)
GI50 [1]: 26.4 µM | TGI [1]: 67.7 µM | GI50 [2]: > 100 µM | TGI [2]: > 100 µM | GI50 [3]: 33.8 µM | TGI [3]: > 100 µM | GI50 [4]: 15.7 µM | TGI [4]: > 100 µM | GI50 [5]: 71.9 µM | TGI [5]: > 100 µM | GI50 [6]: 18.9 µM | TGI [6]: 41.8 µM | GI50 [7]: 24.8 µM | TGI [7]: 62.3 µM | GI50 [8]: 69.8 µM | TGI [8]: > 100 µM | GI50 [9]: 17.6 µM | TGI [9]: 39.5 µM | GI50 [10]: 24.6 µM | TGI [10]: 66.2 µM

From PubChem BioAssay (NCI)
